Laboratory results as given in US20150182550A1, “INHIBITORS OF THE INTERACTION OF THE SIGMA-1 RECEPTOR WITH hERG FOR USE IN THE TREATMENT OF CANCER” (CENTRE NATIONAL DE LA RECHERCHE SCIENTIFIQUE - CNRS, priority 2011, published 2015).

What was measured:
hERG channels = assay: Whole-cell patch-clamp of hERG tail currents in K562 cells; conditions: 10 μM
Protocol: “Patch-clamp” electrophysiology experiments were carried out in the whole cell configuration. […] This protocol makes it possible to record transient inward currents, the amplitude of which correlates with the depolarization involved during the prepulses. […] (FIGS. 1A,B).
In order to verify a potential interaction between Sig1R and hERG, the effects of selective Sig1R ligands, i.e. igmesine and (+)pentazocine were analyzed with respect to the current. […] The effects of igmesine (10 μM) were then studied on I/V curves recorded at from −70 to 40 mV.
Patch-clamp experiments were then carried out in the K562 shRD and shSig1R cell lines in order to analyze the possible consequences of Sig1R silencing on the properties of hERG.

K562 cells = assay: Adhesion of K562 cells to fibronectin (FN); type: cell-based, human; conditions: for FN-dependent specific cell adhesion: wild-type K562 cells, 10 μM
Excerpt: FIGS. 8A-8B represents the inhibition of the adhesion of K562 cells to FN by igmesine, E-4031 and Sig1R silencing. […] The values represent the mean±standard error of 6 to 9 independent experiments. NS: not significant (Student's t test). […] The values represent the mean±standard error of 12 independent experiments. ***p<0.001 (Student's t test). In one experiment, each value is the mean of three distinct wells.
The role of the Sig1R/hERG interaction on integrin-dependent cell adhesion to the extracellular matrix (ECM) has been tested in vitro. The expression of a single integrin subtype, i.e. integrin α5β1, has been reported in K562 cells. This integrin has a high affinity for fibronectin (FN), a component of the extracellular matrix (ECM). […] In the wild-type cells, the hERG channel blocker (E-4031) and igmesine inhibited FN-dependent specific cell adhesion. […] Likewise, the Sigma ligands no longer have any effect on the adhesion of the shSig1R cells (not represented).

| SMILES | effect of extracellular application on hERG currents (hERG channels; K562 cells) | hERG current reduced by (hERG channels; extracellular application, tail current at −120 mV, K562 cells) [%] | additive effect on adhesion to FN compared with E-4031 alone (K562 cells; E4031+igmesine 10 μM each, K562 cells) | FN-dependent specific cell adhesion (K562 cells) | hERG current reduced by (hERG channels; human) [%] | shift towards the left of the half-activation voltage value (hERG channels; human) [mV] |
| --- | --- | --- | --- | --- | --- | --- |
| CC(C)=CCN1CCC2(C)c3cc(O)ccc3CC1C2C (single isomer, unassigned; (+)) [(+)pentazocine] | reversibly inhibited | 21.19±1.77 |  |  |  |  |
| CCC(C/C=C/c1ccccc1)(c1ccccc1)N(C)CC1CC1 (stereo not shown) [igmesine] |  |  | did not produce an additive effect | inhibited | 40.85±2.83 | ~10 |
| Cc1cccc(CCN2CCC(C(=O)c3ccc(NS(C)(=O)=O)cc3)CC2)n1 [E-4031] |  |  |  | inhibited |  |  |
